# Tests used:
# Assay type in all cases: functional
# Hs-578T = assay: Cytotoxicity against human Hs 578T cells assessed as cell growth at 1 uM after 48 hrs by sulforhodamine B assay relative to control; details: read-out: Activity
# UO-31 = assay: Cytotoxicity against human UO31 cells assessed as cell growth at 1 uM after 48 hrs by sulforhodamine B assay relative to control; details: UO-31, 48 h, read-out: Activity
# HL-60(TB) [1] = assay: Cytotoxicity against human HL-60(TB) cells assessed as cell growth at 0.1 uM after 48 hrs by sulforhodamine B assay relative to control; details: HL-60, 48 h, read-out: Activity
# CCRF-CEM = assay: Cytotoxicity against human CCRF-CEM cells assessed as growth inhibition after 48 hrs by sulforhodamine B assay
# OVCAR-3 [2] = assay: Cytotoxicity against human OVCAR3 cells assessed as growth inhibition after 48 hrs by sulforhodamine B assay; details: OVCAR-3, 48 h
# SNB-19 [3] = assay: Cytotoxicity against human SNB19 cells assessed as cell growth at 0.1 uM after 48 hrs by sulforhodamine B assay relative to control; details: SNB-19, 48 h, read-out: Activity
# A549 [4] = assay: Cytotoxicity against human A549/ATCC cells assessed as cell growth at 1 uM after 48 hrs by sulforhodamine B assay relative to control; details: A549, 48 h, read-out: Activity
# SK-OV-3 = assay: Cytotoxicity against human SKOV3 cells assessed as cell growth at 100 uM after 48 hrs by sulforhodamine B assay relative to control; details: SK-OV-3, 48 h, read-out: Activity
# Malme-3M = assay: Cytotoxicity against human MALME-3M cells assessed as cell growth at 0.01 uM after 48 hrs by sulforhodamine B assay relative to control; details: read-out: Activity
# T47D [5] = assay: Cytotoxicity against human T47D cells assessed as cell growth at 100 uM after 48 hrs by sulforhodamine B assay relative to control; details: read-out: Activity
# RPMI-8226 [6] = assay: Cytotoxicity against human RPMI8226 cells assessed as cell growth at 0.1 uM after 48 hrs by sulforhodamine B assay relative to control; details: RPMI-8226, 48 h, read-out: Activity
# RPMI-8226 [7] = assay: Cytotoxicity against human RPMI8226 cells assessed as cell growth at 1 uM after 48 hrs by sulforhodamine B assay relative to control; details: RPMI-8226, 48 h, read-out: Activity
# COLO 205 = assay: Cytotoxicity against human COLO205 cells assessed as cell growth at 0.1 uM after 48 hrs by sulforhodamine B assay relative to control; details: COLO 205, 48 h, read-out: Activity
# SN12C [8] = assay: Cytotoxicity against human SN12C cells assessed as cell growth at 10 uM after 48 hrs by sulforhodamine B assay relative to control; details: read-out: Activity
# A549 [9] = assay: Cytotoxicity against human A549/ATCC cells assessed as cell growth at 10 uM after 48 hrs by sulforhodamine B assay relative to control; details: A549, 48 h, read-out: Activity
# SK-MEL-28 = assay: Cytotoxicity against human SK-MEL-28 cells assessed as cell growth at 0.01 uM after 48 hrs by sulforhodamine B assay relative to control; details: SK-MEL-28, 48 h, read-out: Activity
# A498 = assay: Cytotoxicity against human A498 cells assessed as cell growth at 0.01 uM after 48 hrs by sulforhodamine B assay relative to control; details: A498, 48 h, read-out: Activity
# HL-60(TB) [10] = assay: Cytotoxicity against human HL-60(TB) cells assessed as cell growth at 1 uM after 48 hrs by sulforhodamine B assay relative to control; details: HL-60, 48 h, read-out: Activity
# MOLT-4 = assay: Cytotoxicity against human MOLT4 cells assessed as growth inhibition after 48 hrs by sulforhodamine B assay; details: MOLT-4, 48 h; for CC50: read-out: LC50 (the source's name)
# PC-3 = assay: Cytotoxicity against human PC3 cells assessed as cell growth at 0.1 uM after 48 hrs by sulforhodamine B assay relative to control; details: PC-3, 48 h, read-out: Activity
# RPMI-8226 [11] = assay: Cytotoxicity against human RPMI8226 cells assessed as cell growth at 0.01 uM after 48 hrs by sulforhodamine B assay relative to control; details: RPMI-8226, 48 h, read-out: Activity
# HL-60(TB) [12] = assay: Cytotoxicity against human HL-60(TB) cells assessed as growth inhibition after 48 hrs by sulforhodamine B assay; details: HL-60, 48 h
# T47D [13] = assay: Cytotoxicity against human T47D cells assessed as cell growth at 0.1 uM after 48 hrs by sulforhodamine B assay relative to control; details: read-out: Activity
# OVCAR-3 [14] = assay: Cytotoxicity against human OVCAR3 cells assessed as cell growth at 100 uM after 48 hrs by sulforhodamine B assay relative to control; details: OVCAR-3, 48 h, read-out: Activity
# SN12C [15] = assay: Cytotoxicity against human SN12C cells assessed as cell growth at 1 uM after 48 hrs by sulforhodamine B assay relative to control; details: read-out: Activity
# IGROV-1 [16] = assay: Cytotoxicity against human IGROV1 cells assessed as growth inhibition after 48 hrs by sulforhodamine B assay; details: IGROV-1, 48 h
# NCI/ADR-RES = assay: Cytotoxicity against human NCI/ADR-RES cells assessed as cell growth at 0.01 uM after 48 hrs by sulforhodamine B assay relative to control; details: read-out: Activity
# U-251 [17] = assay: Cytotoxicity against human U251 cells assessed as cell growth at 10 uM after 48 hrs by sulforhodamine B assay relative to control; details: U-251, 48 h, read-out: Activity
# IGROV-1 [18] = assay: Cytotoxicity against human IGROV1 cells assessed as cell growth at 10 uM after 48 hrs by sulforhodamine B assay relative to control; details: IGROV-1, 48 h, read-out: Activity
# A549 [19] = assay: Cytotoxicity against human A549/ATCC cells assessed as cell growth at 0.1 uM after 48 hrs by sulforhodamine B assay relative to control; details: A549, 48 h, read-out: Activity
# NCI-H322M = assay: Cytotoxicity against human NCI-H322M cells assessed as cell growth at 100 uM after 48 hrs by sulforhodamine B assay relative to control; details: read-out: Activity
# MCF7 [20] = assay: Cytotoxicity against human MCF7 cells assessed as cell growth at 0.1 uM after 48 hrs by sulforhodamine B assay relative to control; details: MCF7, 48 h, read-out: Activity
# NCI-H522 = assay: Cytotoxicity against human NCI-H522 cells assessed as cell growth at 0.01 uM after 48 hrs by sulforhodamine B assay relative to control; details: NCI-H522, 48 h, read-out: Activity
# MCF7 [21] = assay: Cytotoxicity against human MCF7 cells assessed as growth inhibition after 48 hrs by sulforhodamine B assay; details: MCF7, 48 h
# U-251 [22] = assay: Cytotoxicity against human U251 cells assessed as cell growth at 100 uM after 48 hrs by sulforhodamine B assay relative to control; details: U-251, 48 h, read-out: Activity
# SNB-19 [23] = assay: Cytotoxicity against human SNB19 cells assessed as cell growth at 10 uM after 48 hrs by sulforhodamine B assay relative to control; details: SNB-19, 48 h, read-out: Activity
# OVCAR-5 = assay: Cytotoxicity against human OVCAR5 cells assessed as cell growth at 0.1 uM after 48 hrs by sulforhodamine B assay relative to control; details: OVCAR-5, 48 h, read-out: Activity
compound,measurement,setting,value
COc1cc(-c2cc(/C=C/C(=O)c3ccc(Cl)c(Cl)c3)[nH]n2)cc(OC)c1OC,growth at 1 µM,Hs-578T,104%
same,growth at 1 µM,UO-31,81%
same,growth at 0.1 µM,HL-60(TB) [1],100%
same,LC50 (concentration killing 50% of cells),CCRF-CEM,> 100 µM
same,TGI,CCRF-CEM,23.5 µM
same,LC50,OVCAR-3 [2],> 100 µM
same,TGI,OVCAR-3 [2],37.8 µM
same,growth at 0.1 µM,SNB-19 [3],92%
same,growth at 1 µM,A549 [4],93%
same,growth at 100 µM,SK-OV-3,-70%
same,growth at 0.01 µM,Malme-3M,94%
same,growth at 100 µM,T47D [5],-36%
same,growth at 0.1 µM,RPMI-8226 [6],95%
same,growth at 1 µM,RPMI-8226 [7],33%
same,growth at 0.1 µM,COLO 205,88%
same,growth at 10 µM,SN12C [8],56%
same,growth at 10 µM,A549 [9],68%
same,growth at 0.01 µM,SK-MEL-28,108%
same,growth at 0.01 µM,A498,84%
same,growth at 1 µM,HL-60(TB) [10],90%
same,TGI,MOLT-4,40.6 µM
same,CC50,MOLT-4,> 100 µM
same,growth at 0.1 µM,PC-3,100%
same,growth at 0.01 µM,RPMI-8226 [11],100%
same,LC50,HL-60(TB) [12],> 100 µM
same,TGI,HL-60(TB) [12],36.7 µM
same,growth at 0.1 µM,T47D [13],87%
same,growth at 100 µM,OVCAR-3 [14],-30%
same,growth at 1 µM,SN12C [15],91%
same,LC50,IGROV-1 [16],> 100 µM
same,TGI,IGROV-1 [16],> 100 µM
same,growth at 0.01 µM,NCI/ADR-RES,100%
same,growth at 10 µM,U-251 [17],48%
same,growth at 10 µM,IGROV-1 [18],75%
same,growth at 0.1 µM,A549 [19],99%
same,growth at 100 µM,NCI-H322M,5%
same,growth at 0.1 µM,MCF7 [20],105%
same,growth at 0.01 µM,NCI-H522,92%
same,LC50,MCF7 [21],> 100 µM
same,TGI,MCF7 [21],> 100 µM
same,growth at 100 µM,U-251 [22],-5%
same,growth at 10 µM,SNB-19 [23],50%
same,growth at 0.1 µM,OVCAR-5,99%
COc1ccc(-c2cc(/C=C/C(=O)c3ccc(N)cc3)[nH]n2)cc1,growth at 1 µM,Hs-578T,93%
same,growth at 1 µM,UO-31,61%
same,growth at 0.1 µM,HL-60(TB) [1],97%
same,GI50,CCRF-CEM,1.32 µM
same,LC50 (concentration killing 50% of cells),CCRF-CEM,36.1 µM
same,TGI,CCRF-CEM,4.91 µM
same,GI50,OVCAR-3 [2],1.25 µM
same,LC50,OVCAR-3 [2],7.09 µM
same,TGI,OVCAR-3 [2],2.97 µM
same,growth at 0.1 µM,SNB-19 [3],89%
same,growth at 1 µM,A549 [4],84%
same,growth at 100 µM,SK-OV-3,-68%
same,growth at 0.01 µM,Malme-3M,93%
same,growth at 100 µM,T47D [5],-54%
same,growth at 0.1 µM,RPMI-8226 [6],100%
same,growth at 1 µM,RPMI-8226 [7],36%
same,growth at 0.1 µM,COLO 205,96%
same,growth at 10 µM,SN12C [8],-16%
same,growth at 10 µM,A549 [9],1%
same,growth at 0.01 µM,SK-MEL-28,98%
same,growth at 0.01 µM,A498,88%
same,growth at 1 µM,HL-60(TB) [10],61%
same,GI50,MOLT-4,2.32 µM
same,TGI,MOLT-4,9.48 µM
same,CC50,MOLT-4,> 100 µM
same,growth at 0.1 µM,PC-3,93%
same,growth at 0.01 µM,RPMI-8226 [11],99%
same,GI50,HL-60(TB) [12],1.43 µM
same,LC50,HL-60(TB) [12],> 100 µM
same,TGI,HL-60(TB) [12],7.71 µM
same,growth at 0.1 µM,T47D [13],87%
same,growth at 100 µM,OVCAR-3 [14],-85%
same,growth at 1 µM,SN12C [15],76%
same,GI50,IGROV-1 [16],2.27 µM
same,LC50,IGROV-1 [16],43.3 µM
same,TGI,IGROV-1 [16],6.45 µM
same,growth at 0.01 µM,NCI/ADR-RES,101%
same,growth at 10 µM,U-251 [17],-94%
same,growth at 10 µM,IGROV-1 [18],-21%
same,growth at 0.1 µM,A549 [19],98%
same,growth at 100 µM,NCI-H322M,-98%
same,growth at 0.1 µM,MCF7 [20],94%
same,growth at 0.01 µM,NCI-H522,84%
same,GI50,MCF7 [21],0.78 µM
same,LC50,MCF7 [21],34.1 µM
same,TGI,MCF7 [21],3.84 µM
same,growth at 100 µM,U-251 [22],-100%
same,growth at 10 µM,SNB-19 [23],5%
same,growth at 0.1 µM,OVCAR-5,95%

# From ChEMBL document CHEMBL4138123, “Design, synthesis and biological evaluation of novel pyrazolochalcones as potential modulators of PI3K/Akt/mTOR pathway and inducers of apoptosis in breast cancer cells” (Eur J Med Chem, 2017)
